Measured values published in paper PMC10111420, “Optimization of Host Cell-Compatible, Antimicrobial Peptides Effective against Biofilms and Clinical Isolates of Drug-Resistant Bacteria” (ACS Infectious Diseases, 2023).
Values after ≈ are worked out from the molar mass of the structure shown. Values joined by “and” are separate entries in the source; they are usually repeats but may differ in a detail not shown here. Equal values may be shown once. Where a SMILES comes first, the peptide text is derived from it. [ ]: non-standard residue; d: D form. dAgb = N=C(N)NCC[C@@H](N)C(=O)O; βAla = NCCC(=O)O

Legend:
S. aureus (ATCC 25923) = tested on: S. aureus (ATCC 25923)
Description: (§1) All peptide variants were synthesized and purified as described previously.[5],[7] They were tested in broth dilution in the presence and absence of 1 × 10^9 human RBCs per mL, 20% of the concentration in human blood, against Escherichia coli, K. pneumoniae, and Staphylococcus aureus. […] The toxicity of the variants was tested by measuring hemolysis as well as cytotoxicity against human WI-38 fibroblast cells.
(§2) Subcultures, prepared by inoculating 25 mL of fresh tryptic soy broth (TSB) with 200 μL of an overnight culture, were grown to log phase (OD600 = 0.3–0.6), after which cell counts were determined by measuring the OD600 (1.0 = 5 × 10^8 CFU/mL for E. coli, 4 × 10^8 CFU/mL for K. pneumoniae, 4 × 10^8 CFU/mL for P. aeruginosa, 1.5 × 10^8 CFU/mL for S. aureus). Bacterial cells were diluted to appropriate concentrations in TSB. We used the following clinical bacterial isolates of Klebsiella pneumoniae in this study: Strains KP6, KP46, NDM-1, KP396, and KP398 have been previously described.[43] ST58 strains C2, C3, and I2 are also described.[41] […] MRSA, […] S. aureus strain, is SAP400, a USA400 strain of community-acquired MRSA. […] The second independent set of K. pneumoniae isolates are previously described.[20],[21]
(§3) The antibiotics were serially diluted by a factor of 2:3 horizontally across 96-well plates from Corning, 25 μL per well. One column was reserved for controls. For the assays performed in the presence of RBC, type O+ human RBCs at 0 or 2.5 × 10^9 cells/mL were added in 50 μL aliquots to all wells. Following a 30-min incubation, 50 μL of TSB, inoculated with 5 × 10^5 CFU/mL, was added to all wells, and plates were incubated overnight at 37 °C. Following overnight incubation at 37 °C, the OD600 was measured (values of less than 0.1 were considered sterilized). To assess bacterial growth in the assays with RBC, the OD600 was measured after a second-day inoculation with 10 μL of solution from the original plate added to 100 μL of sterile TSB followed by overnight incubation.
(§4) Experiments were repeated four to eight times independently, with pairs of replicate measurements on each 96-well plate. After overnight growth, optical densities were measured at 660 nm and the sterilized wells were identified by having O.D. < 0.08. Nonsterilized wells were nearly opaque with OD > 0.6. For each measurement, we recorded the largest dilution that sterilized the bacteria. Statistics are done on dilution numbers, rather than calculated concentrations, because only the former have normal distributions.

in vitro = type: cell-based, human; details: human
Description: (§5) The day before cytotoxicity experiments, the 10,000 cells/well were plated in a 96-well tissue-culture plate. […] To perform the cytotoxicity assay, media was removed from the wells and replaced with peptide solutions. […] The plate was read for SYTOX fluorescence every 5 min for an hour with an excitation wavelength of 504 nm and an emission wavelength of 523 nm. Percent cytotoxicity was calculated at 60 min using the 100 and 0% lysis controls. At least three independent experiments were averaged.

human RBCs = type: cell-based
Description: Human O+ erythrocytes were obtained from Interstate Blood Bank, Inc. Red blood cells were subjected to four or more cycles of centrifugation at 1000g with resuspension in fresh PBS. Following the final wash step, the supernatant was clear and colorless. RBC concentration was determined using a standard hemocytometer.
Peptide was serially diluted in PBS starting at a concentration of 100 μM. The final volume of peptide in each well was 50 μL. To each well, 50 μL of RBCs in PBS at 2 × 10^8 cells/mL was added. As a positive lysis control, 1% Triton was used. The mixtures were incubated at 37 °C for 1 h, after which they were centrifuged at 1000g for 5 min. After centrifugation, 10 μL of supernatant was transferred to 90 μL of DI H2O in a fresh 96-well plate. The absorbance of released hemoglobin at 410 nm was recorded, and the fractional hemolysis was calculated based on the 100 and 0% lysis controls. At least three independent experiments were performed. Results shown are averages.

[1] = tested on: WI-38 human fibroblast cells; experiment: in vitro; type: cell-based
Description: as §5

[2] = tested on: K. pneumoniae subsp. pneumoniae (ATCC 13883)
Description: as §1, §2, §3, §4

[3] = tested on: MRSA SAP400, a USA400 strain; experiment: microbe, parasite or virus in culture; details: USA400
Description: as §2, §3, §4

[4] = tested on: Pseudomonas aeruginosa clinical isolates; experiment: microbe, parasite or virus in culture; details: clinical isolates
Description: as §2, §3, §4

[5] = tested on: Acinetobacter baumannii (PDR) Tulane isolate; details: PDR) Tulane isolate
[6] = tested on: K. pneumoniae clinical isolates
Description: as §2, §3, §4

[7] = tested on: K. pneumoniae clinical isolates; experiment: microbe, parasite or virus in culture; details: clinical isolates
Description: as §2
as §3, with “Following a 30-min incubation, 50 μL of TSB, inoculated with 5 × 10^5 CFU/mL, was added to all wells, and plates were incubated overnight at 37 °C. Following overnight incubation at 37 °C, the OD600 was measured (values of less than 0.1 were considered sterilized).” left out
as §4

P. aeruginosa = details: cited from earlier work
[8] = tested on: P. aeruginosa PAO1 (EYFP) pellicle biofilms; experiment: Pellicle biofilm assay, viable cell enumeration; type: cell-based, Pseudomonas aeruginosa; details: 2 μM, 48 h pellicle biofilm, 24 h challenge, dispersing and counting viable cells
Description: Here, we directly compare the antibiofilm activity of D-CONGA and D-CONGA-Q7 using a mature pellicle biofilm of P. aeruginosa.[22] […] To determine the susceptibility of pellicle biofilms to D-CONGA and D-CONGA-Q7, we cultured 2-day-old biofilms as described in the Methods section. The coverslip-adhered biofilms were exposed to challenge solution for 24 h prior to staining with SYTOX red and imaging with CLSM for EYFP, which indicates live cells, and for SYTOX Red which stains dead cells and extracellular DNA. […] The % cell survival was quantitated in two ways: (i) COMSTAT was used to compare biofilm biomass in CLSM images by estimating the biofilm biovolume, which is calculated as the overall volume/substratum area (μm^3/μm^2).[24],[25] […] (ii) The biofilms were dispersed mechanically for subsequent enumeration of viable cells such that % survival is expressed as the ratio (CFUuntreated biofilm/CFUtreated biofilm).
The susceptibility of biofilm-embedded P. aeruginosa cells to the antimicrobial peptides was studied as reported previously[23] using a P. aeruginosa PAO1 strain expressing enhanced yellow fluorescent protein (EYFP).[22] The EYFP-expressing P. aeruginosa strain was routinely grown in Pseudomonas Isolation (PI) media (20 g/L peptone, 0.3 g/L, MgCl2·6H2O, 10 g/L, K2SO4, 25 mg/L irgasan, and 20 mL/L glycerol, pH 7.0). […] Iron supplementation was carried out by addition of a small volume of filter-sterilized 10 mM (NH4)2Fe(SO4)2 (pH ∼ 2.0) solution.
In brief: Starter cultures (5 mL PI media supplemented with 10 μM Fe) were grown (14 h) from a single-colony shaking (220 rpm) at 37 °C. To grow the pellicle biofilms, starter cultures were diluted to OD600 = 0.001 in 4 mL of PI media supplemented with 20 μM Fe, placed in 35 × 10 mm Petri dishes, and incubated statically at 30 °C for 48 h. The pellicles were harvested using circular (1.5 cm diameter) glass coverslips by gently allowing the surface of a coverslip to contact the biofilm at the air–liquid interface. […]

CC(C)C[C@@H](NC(=O)[C@@H](CCNC(=N)N)NC(=O)[C@@H](CCNC(=N)N)NC(=O)[C@@H](C)NC(=O)[C@@H](Cc1c[nH]c2ccccc12)NC(=O)[C@@H](CCCNC(=N)N)NC(=O)[C@H](N)CCCNC(=N)N)C(=O)N[C@H](C)C(=O)N[C@H](Cc1ccccc1)C(=O)N[C@H](C)C(=O)N[C@H](Cc1ccccc1)C(=O)N[C@H](CCCNC(=N)N)C(=O)N[C@H](CCCNC(=N)N)C(N)=O [D-CONGA- NorR] (H-[dR][dR][dW][dA][dAgb][dAgb][dL][dA][dF][dA][dF][dR][dR]-NH2; N-terminus and C-terminus assumed)
MIC in Broth Dilution, S. Aureus (S. aureus (ATCC 25923)): 17 µM (≈ 29.5 µg/mL)

CC(C)C[C@@H](NC(=O)[C@@H](CCCNC(=N)N)NC(=O)[C@H](CCCNC(=N)N)NC(=O)[C@@H](C)NC(=O)[C@@H](Cc1c[nH]c2ccccc12)NC(=O)[C@@H](CCCNC(=N)N)NC(=O)[C@H](N)CCCNC(=N)N)C(=O)N[C@H](C)C(=O)N[C@H](Cc1ccccc1)C(=O)N[C@@H](C)C(=O)N[C@H](Cc1ccccc1)C(=O)N[C@H](CCCNC(=N)N)C(=O)N[C@H](CCCNC(=N)N)C(N)=O [D-CONGA-L-R5,A10] (H-[dR][dR][dW][dA]R[dR][dL][dA][dF]A[dF][dR][dR]-NH2; N-terminus and C-terminus assumed)
EC50 at 60 min (in vitro): > 1 mM
Hemolysis at 100 μM (fractional hemolysis) (human RBCs): 0.04

CC(C)C[C@@H](NC(=O)[C@@H](CCCNC(=N)N)NC(=O)[C@@H](CCCNC(=N)N)NC(=O)[C@@H](C)NC(=O)[C@@H](Cc1c[nH]c2ccccc12)NC(=O)[C@@H](CCCNC(=N)N)NC(=O)[C@H](N)CCCNC(=N)N)C(=O)N[C@H](C)C(=O)N[C@H](Cc1ccccc1)C(=O)N[C@H](C)C(=O)N[C@H](Cc1ccccc1)C(=O)N[C@H](CCCNC(=N)N)C(N)=O [D-CONGA-ΔR13] (H-[dR][dR][dW][dA][dR][dR][dL][dA][dF][dA][dF][dR]-NH2; N-terminus and C-terminus assumed)
EC50 [1]: 300 µM
MIC in Broth Dilution, K. Pneumoniae [2]: 2.1 µM (≈ 3.37 µg/mL)
Hemolysis at 100 μM (fractional hemolysis) (human RBCs): 0.03

CC(C)C[C@@H](NC(=O)CCNC(=O)[C@@H](CCCNC(=N)N)NC(=O)[C@@H](CCCNC(=N)N)NC(=O)[C@@H](C)NC(=O)[C@@H](Cc1c[nH]c2ccccc12)NC(=O)[C@@H](CCCNC(=N)N)NC(=O)[C@H](N)CCCNC(=N)N)C(=O)N[C@H](C)C(=O)N[C@H](Cc1ccccc1)C(=O)N[C@H](C)C(=O)N[C@H](Cc1ccccc1)C(=O)N[C@H](CCCNC(=N)N)C(=O)N[C@H](CCCNC(=N)N)C(N)=O [D-CONGA-βA7] (H-[dR][dR][dW][dA][dR][dR][βAla][dL][dA][dF][dA][dF][dR][dR]-NH2; N-terminus and C-terminus assumed)
EC50 at 60 min (in vitro): > 1 mM
Hemolysis at 100 μM (fractional hemolysis) (human RBCs): 0.02

CC(C)C[C@@H](NC(=O)[C@@H](CCCNC(=N)N)NC(=O)[C@@H](CCCNC(=N)N)NC(=O)[C@@H](C)NC(=O)[C@@H](Cc1c[nH]c2ccccc12)NC(=O)[C@@H](CCCNC(=N)N)NC(=O)[C@H](N)CCCNC(=N)N)C(=O)N[C@H](C)C(=O)N[C@H](Cc1ccccc1)C(=O)N[C@H](C)C(=O)N[C@H](Cc1ccccc1)C(=O)N[C@H](CCCNC(=N)N)C(=O)N[C@H](CCCNC(=N)N)C(N)=O [D-CONGA] (H-[dR][dR][dW][dA][dR][dR][dL][dA][dF][dA][dF][dR][dR]-NH2)
MIC, MRSA USA400 [3]: 2.6 µM (≈ 4.58 µg/mL)
MIC, PA(mucoid) [4]: 4.4 µM (≈ 7.75 µg/mL)
MIC, PA(non-mucoid) [4]: 1.3 µM (≈ 2.29 µg/mL)
MIC, AB (PDR)Tulane [5]: 2.4 µM (≈ 4.23 µg/mL)
K. Pneumoniae Isolate MIC, 1000527 [6]: > 25 µM
K. Pneumoniae Isolate MIC, 1002565 [6]: > 25 µM
K. Pneumoniae Isolate MIC, 1100770 [6]: 7.3 µM
K. Pneumoniae Isolate MIC, 1100975 [6]: 14 µM
K. Pneumoniae Isolate MIC, ATCC 43816 [6]: 5.4 µM
K. Pneumoniae Isolate MIC, ATCC 700721 [6]: 5.4 µM
K. Pneumoniae Isolate MIC, K6 [6]: 2.7 µM
K. Pneumoniae Isolate MIC, K 6.1 [6]: 14 µM
K. Pneumoniae Isolate MIC, K 6.2 [6]: 14 µM
K. Pneumoniae Isolate MIC, KP 80 [6]: 14 µM
K. Pneumoniae Isolate MIC, KP NIH 1 [6]: > 25 µM
K. Pneumoniae Isolate MIC, KP NIH 10 [6]: > 25 µM
K. Pneumoniae Isolate MIC, KP NIH 24 [6]: > 25 µM
K. Pneumoniae Isolate MIC, KP NIH 27 [6]: > 25 µM
K. Pneumoniae Isolate MIC, KP NIH 29 [6]: 14 µM
K. Pneumoniae Isolate MIC, KP NIH 30 [6]: 7.3 µM
K. Pneumoniae Isolate MIC, KP NIH 31 [6]: 7.3 µM
K. Pneumoniae Isolate MIC, KP NIH 32 [6]: > 25 µM
K. Pneumoniae Isolate MIC, KP NIH 33 [6]: 3.6 µM
Hemolysis at 100 μM (fractional hemolysis) (human RBCs): 0.06
MIC, KP 6 [7]: 4.2 µM (≈ 7.4 µg/mL)
MIC, KP 46 [7]: 4.4 µM (≈ 7.75 µg/mL)
MIC, KP 398 [7]: 32 µM (≈ 56.4 µg/mL)
MIC, KP 2146NDM-1 [7]: 15 µM (≈ 26.4 µg/mL)
MIC, KP (CRE) [7]: 23 µM (≈ 40.5 µg/mL)
MIC, KP ATCC 33495 [7]: 5.0 µM (≈ 8.81 µg/mL)
MIC, KP ST258 C2 [7]: 64 µM (≈ 113 µg/mL)
MIC, KP ST258 C3 [7]: 92 µM (≈ 162 µg/mL)
MIC, KP ST258 I2 [7]: 3.2 µM (≈ 5.64 µg/mL)
MIC, KP ST396 [7]: 2.0 µM (≈ 3.52 µg/mL)

colistin
reported MIC (P. aeruginosa): 1 μg/mL and 0.79 μM
Reduction of biofilm CFU [8]: no detectable activity
